In one assay the target is T1, Akt1 (Homo sapiens, UniProt P31749).
T1 construct: unspecified tag, removed (detagged) (cleaved yes); purchased SignalChem and Proteros (Akt1); Merck Millipore (PDK1) 14-452 (PDK1); none given for Akt1
The experiment in a line: Akt activation assay (PDK1-mediated activation, LANCE Ultra crosstide TR-FRET), Akt1. Type of assay: biochemical. The note with it: read-out: Biological Assay 1 IC50 (nM) Akt1. The essentials: (§1)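 Unactivated Akt (5 nM Akt1, 15 or 5 nM Akt2, 3 or 5 nM Akt3, by supplier) preincubated with compound, then activated by 5 nM PDK1 on DOPS/DOPC/PtdIns(3,4,5)P3 vesicles with 100 μM ATP and 100 nM Ulight-crosstide, pH 7.5, 30 min. Eu-anti-phospho-crosstide TR-FRET (665/615 nm); IC50 by 4-parameter fit.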
A general note: TR-FRET usually uses a lanthanide donor and a delayed reading to cut background.

The target in the next assay is T2, Akt2 (Homo sapiens, UniProt P31751).
T2 construct: unspecified tag, removed (detagged) (cleaved yes); purchased SignalChem and Proteros (Akt2); Merck Millipore (PDK1) 14-452 (PDK1); none given for Akt2
Description: Akt activation assay (PDK1-mediated activation, LANCE Ultra crosstide TR-FRET), Akt2. Type of assay: biochemical. The note with it: read-out: Biological Assay 1 IC50 (nM) Akt2. The essentials:
as §1

A further assay deals with T3, Akt3 (Homo sapiens, UniProt Q9Y243).
T3 construct: unspecified tag, removed (detagged) (cleaved yes); purchased SignalChem and Proteros (Akt3); Merck Millipore (PDK1) 14-452 (PDK1); none given for Akt3
The experiment in a line: Akt activation assay (PDK1-mediated activation, LANCE Ultra crosstide TR-FRET), Akt3. Type of assay: biochemical. As to conditions: read-out: Biological Assay 1 IC50 (nM) Akt3. The essentials:
as §1

A further assay concerns the target T4, p-Akt1 in LNCaP cells (Homo sapiens, UniProt P31749).
T4 construct: SureFire assays to detect cellular p-Akt1, p-Akt2 and p-Akt3 levels in WM115 cells (Akt2/3) and LNCaP cells (Akt1); endogenous in cells; host or cells: LNCaP (ECACC 89110211)
Description: Phospho-Akt cellular SureFire assay, p-Akt1 in LNCaP cells. It counts as cell-based. As to conditions: read-out: Biological Assay 2 IC50 (nM) Akt1 LNCaP. Put shortly: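 LNCaP cells, 5×10^4/well, seeded overnight, switched to 0.1% FBS medium without insulin stimulation, then compound for 15 min at 37 °C (0.3% DMSO). Lysate p-Akt1 (pThr308) by AlphaScreen SureFire, two 2 h incubations at room temperature; IC50 by 4-parameter fit.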

In the next assay the target is T5, p-Akt2 in WM115 cells (Homo sapiens, UniProt P31751).
T5 construct: SureFire assays to detect cellular p-Akt1, p-Akt2 and p-Akt3 levels in WM115 cells (Akt2/3) and LNCaP cells (Akt1); endogenous in cells; host or cells: WM115 (ECACC 91061232), insulin-stimulated
The experiment in a line: Phospho-Akt cellular SureFire assay, p-Akt2 in WM115 cells. It counts as cell-based. As to conditions: insulin stimulated, read-out: Biological Assay 2 IC50 (nM) Akt2 WM115. Put shortly: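 WM115 cells in 0.1% FBS medium stimulated 10 min with 100 nM insulin, then exposed to compound for 15 min at 37° C (0.3% DMSO final). Lysates assayed by AlphaScreen with anti-(pThr308)Akt and isoform-specific total Akt2 antibodies; IC50 from 4-parameter fit.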

For another assay, the target named is T6, p-Akt3 in WM115 cells (Homo sapiens, UniProt Q9Y243).
T6 construct: SureFire assays to detect cellular p-Akt1, p-Akt2 and p-Akt3 levels in WM115 cells (Akt2/3) and LNCaP cells (Akt1); endogenous in cells; host or cells: WM115 (ECACC 91061232), insulin-stimulated
The experiment in a line: Phospho-Akt cellular SureFire assay, p-Akt3 in WM115 cells. Type of assay: cell-based. As to conditions: insulin stimulated, read-out: Biological Assay 2 IC50 (nM) Akt3 WM115. The essentials: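 WM115 cells were serum-reduced to 0.1% FBS, stimulated with 100 nM insulin for 10 min, then exposed to compound (0.3% DMSO) for 15 min at 37 °C. Lysates were assayed for Thr308-phosphorylated Akt3 by AlphaScreen SureFire using an isoform-specific total Akt3 capture antibody. IC50 was derived from a 4-parameter fit.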

SMILES strings stand for the structures. Bounds are passed on as bounds.

T5 sequence (P31751 whole entry): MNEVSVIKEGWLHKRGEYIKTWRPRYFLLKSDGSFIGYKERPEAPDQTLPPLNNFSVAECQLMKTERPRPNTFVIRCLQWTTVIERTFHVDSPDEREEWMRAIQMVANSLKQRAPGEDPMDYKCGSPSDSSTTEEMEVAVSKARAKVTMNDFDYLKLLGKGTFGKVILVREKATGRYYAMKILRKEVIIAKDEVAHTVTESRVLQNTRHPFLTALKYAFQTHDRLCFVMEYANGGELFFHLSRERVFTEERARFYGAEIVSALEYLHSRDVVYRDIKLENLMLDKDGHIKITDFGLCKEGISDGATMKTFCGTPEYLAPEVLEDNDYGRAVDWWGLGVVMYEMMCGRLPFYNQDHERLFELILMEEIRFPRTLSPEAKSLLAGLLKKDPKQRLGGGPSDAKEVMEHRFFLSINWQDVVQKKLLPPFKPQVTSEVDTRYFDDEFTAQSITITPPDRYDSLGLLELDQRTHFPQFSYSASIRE
T2 sequence (P31751 whole entry): as above
T3 sequence (Q9Y243 whole entry): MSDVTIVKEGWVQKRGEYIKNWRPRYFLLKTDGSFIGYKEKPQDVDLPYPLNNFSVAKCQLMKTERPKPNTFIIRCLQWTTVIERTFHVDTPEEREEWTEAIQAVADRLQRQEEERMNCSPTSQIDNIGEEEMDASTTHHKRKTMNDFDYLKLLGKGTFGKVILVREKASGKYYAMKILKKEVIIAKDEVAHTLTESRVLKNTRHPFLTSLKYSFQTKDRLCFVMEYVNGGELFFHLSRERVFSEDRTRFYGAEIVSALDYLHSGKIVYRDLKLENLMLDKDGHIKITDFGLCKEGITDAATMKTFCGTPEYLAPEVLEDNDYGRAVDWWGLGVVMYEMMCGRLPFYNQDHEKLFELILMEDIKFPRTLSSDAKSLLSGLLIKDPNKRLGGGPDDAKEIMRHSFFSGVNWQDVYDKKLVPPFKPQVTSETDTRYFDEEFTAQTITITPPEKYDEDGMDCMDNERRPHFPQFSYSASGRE
T6 sequence (Q9Y243 whole entry): as above
T4 sequence (P31749 whole entry): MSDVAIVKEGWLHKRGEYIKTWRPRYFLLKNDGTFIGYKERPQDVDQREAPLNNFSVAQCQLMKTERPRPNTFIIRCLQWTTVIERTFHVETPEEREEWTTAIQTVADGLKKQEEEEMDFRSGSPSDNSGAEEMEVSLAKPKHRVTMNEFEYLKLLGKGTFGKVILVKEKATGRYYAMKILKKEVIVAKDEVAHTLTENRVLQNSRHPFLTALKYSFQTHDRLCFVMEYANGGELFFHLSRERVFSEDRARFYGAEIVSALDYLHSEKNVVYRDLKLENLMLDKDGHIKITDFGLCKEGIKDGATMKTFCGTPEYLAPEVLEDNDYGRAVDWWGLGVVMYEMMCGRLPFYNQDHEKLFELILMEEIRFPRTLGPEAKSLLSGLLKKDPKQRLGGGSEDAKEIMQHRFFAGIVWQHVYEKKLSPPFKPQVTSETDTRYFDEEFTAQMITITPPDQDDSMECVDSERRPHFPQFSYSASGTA
T1 sequence (P31749 whole entry): as above

For orientation: IC50 means the concentration that inhibits the measured activity by half. For `CC(=O)N(C)[C@H]1CC[C@H](CC(=O)Nc2cc(-c3ccsc3)c(-c3ccc([C@]4(N)C[C@](C)(O)C4)cc3)cn2)CC1` [Example 93, N-(5-(4-(trans-1-amino-3-hydroxy-3-methylcyclobutyl)phenyl)-4-(thiophen-3-yl)pyridin-2-yl)-2-(trans-4-(N-methylacetamido)cyclohexyl)acetamide], the half-maximal inhibitory concentration (IC50) worked out at 3900 nM at Akt1; 320 nM at Akt2; 10 nM at Akt3; 2200 nM at p-Akt1 in LNCaP cells; 520 nM on p-Akt2 in WM115 cells; 9 nM on p-Akt3 in WM115 cells.

For `CCOC(=O)N(C)[C@H]1CC[C@H](CC(=O)Nc2cnc(-c3ccc([C@]4(N)C[C@](C)(O)C4)cc3)c(-c3ccccc3)c2)CC1` [Example 97, Ethyl (4-(2-((6-(4-(trans-1-amino-3-hydroxy-3-methylcyclobutyl)phenyl)-5-phenylpyridin-3-yl)amino)-2-oxoethyl)cyclohexyl)(methyl)carbamate], the IC50 amounted to 2900 nM on Akt1; 48 nM on Akt2; 5 nM on Akt3; 880 nM at p-Akt1 in LNCaP cells; 600 nM at p-Akt2 in WM115 cells; 6 nM on p-Akt3 in WM115 cells.

For the compound `CCC(=O)N(C)[C@H]1CC[C@H](CC(=O)Nc2cnc(-c3ccc([C@]4(N)C[C@](C)(O)C4)cc3)c(-c3ccccc3)c2)CC1` [Example 98, N-(4-(2-((6-(4-(trans-1-amino-3-hydroxy-3-methylcyclobutyl)phenyl)-5-phenylpyridin-3-yl)amino)-2-oxoethyl)cyclohexyl)-N-methylpropionamide], the IC50 at Akt1 came out at 3500 nM; on Akt2, 53 nM; on Akt3 it was 5 nM; at p-Akt1 in LNCaP cells it was 880 nM; on p-Akt2 in WM115 cells it was 470 nM; at p-Akt3 in WM115 cells, 7 nM.

As to `CC(C)C(=O)N(C)[C@H]1CC[C@H](CC(=O)Nc2cnc(-c3ccc([C@]4(N)C[C@](C)(O)C4)cc3)c(-c3ccccc3)c2)CC1` [Example 99, N-(4-(2-((6-(4-(trans-1-amino-3-hydroxy-3-methylcyclobutyl)phenyl)-5-phenylpyridin-3-yl)amino)-2-oxoethyl)cyclohexyl)-N-methylisobutyramide], the half-maximal inhibitory concentration (IC50) at Akt1 amounted to 2400 nM; on Akt2, 44 nM; on Akt3, 6 nM; at p-Akt1 in LNCaP cells, 670 nM; at p-Akt2 in WM115 cells, 390 nM; on p-Akt3 in WM115 cells it was 12 nM.

As to `CC(=O)N(C(C)C)[C@H]1CC[C@H](CC(=O)Nc2cc(-c3ccccc3)c(-c3ccc([C@]4(N)C[C@](C)(O)C4)cc3)nn2)CC1` [Example 100, N-(6-(4-(trans-1-amino-3-hydroxy-3-methylcyclobutyl)phenyl)-5-phenylpyridazin-3-yl)-2-(trans-4-(N-isopropylacetamido)cyclohexyl)acetamide], the IC50 on Akt1 turned out to be 2400 nM; at Akt2 it was 170 nM; on Akt3 it was 8 nM; on p-Akt1 in LNCaP cells it was 790 nM; at p-Akt2 in WM115 cells it was 1000 nM; on p-Akt3 in WM115 cells, 26 nM.

With `COC(=O)N(C(C)C)[C@H]1CC[C@H](CC(=O)Nc2cc(-c3ccccc3)c(-c3ccc([C@]4(N)C[C@](C)(O)C4)cc3)nn2)CC1` [Example 101, Methyl (trans-4-(2-((6-(4-(trans-1-amino-3-hydroxy-3-methylcyclobutyl)phenyl)-5-phenylpyridazin-3-yl)amino)-2-oxoethyl)cyclohexyl)(isopropyl)carbamate], the half-inhibitory concentration (IC50) on Akt1 is 8900 nM; on Akt2, 120 nM; on Akt3 it was 7 nM; at p-Akt1 in LNCaP cells, 5900 nM; at p-Akt2 in WM115 cells, 2600 nM; at p-Akt3 in WM115 cells, 48 nM.

In the case of `CC(=O)N(C(C)C)[C@H]1CC[C@H](CC(=O)Nc2cc(-c3ccccc3)c(-c3ccc([C@]4(N)C[C@](C)(O)C4)cc3)cn2)CC1` [Example 102, N-(5-(4-(trans-1-amino-3-hydroxy-3-methylcyclobutyl)phenyl)-4-phenylpyridin-2-yl)-2-(trans-4-(N-isopropylacetamido)cyclohexyl)acetamide], the 50% inhibitory concentration (IC50) amounted to 4100 nM on Akt1; 140 nM at Akt2; 16 nM on Akt3; 1800 nM at p-Akt1 in LNCaP cells; 1700 nM at p-Akt2 in WM115 cells; 57 nM on p-Akt3 in WM115 cells.

Consider `CCC(=O)N(C(C)C)[C@H]1CC[C@H](CC(=O)Nc2cc(-c3ccccc3)c(-c3ccc([C@]4(N)C[C@](C)(O)C4)cc3)nn2)CC1` [Example 104, N-(trans-4-(2-((6-(4-(trans-1-amino-3-hydroxy-3-methylcyclobutyl)phenyl)-5-phenylpyridazin-3-yl)amino)-2-oxoethyl)cyclohexyl)-N-isopropylpropionamide], for which the IC50 at Akt1 was found to be 3200 nM; on Akt2, 120 nM; at Akt3, 10 nM; at p-Akt1 in LNCaP cells, 1900 nM; on p-Akt2 in WM115 cells, 1300 nM; on p-Akt3 in WM115 cells, 27 nM.

For the compound `CC(C)N(C(=O)C1CC1)[C@H]1CC[C@H](CC(=O)Nc2cc(-c3ccccc3)c(-c3ccc([C@]4(N)C[C@](C)(O)C4)cc3)nn2)CC1` [Example 105, N-(trans-4-(2-((6-(4-(trans-1-amino-3-hydroxy-3-methylcyclobutyl)phenyl)-5-phenylpyridazin-3-yl)amino)-2-oxoethyl)cyclohexyl)-N-isopropylcyclopropanecarboxamide], the IC50 at Akt1 turned out to be 4600 nM; at Akt2, 210 nM; on Akt3, 8 nM; at p-Akt1 in LNCaP cells, 5300 nM; on p-Akt2 in WM115 cells, 1400 nM; on p-Akt3 in WM115 cells, 26 nM.

Consider `CCN(C(C)=O)[C@H]1CC[C@H](CC(=O)Nc2cc(-c3ccccc3)c(-c3ccc([C@]4(N)C[C@](C)(O)C4)cc3)nn2)CC1` [Example 106, N-(6-(4-(trans-1-amino-3-hydroxy-3-methylcyclobutyl)phenyl)-5-phenylpyridazin-3-yl)-2-(trans-4-(N-ethylacetamido)cyclohexyl)acetamide], for which the IC50 on Akt1 was more than 13000 nM; on Akt2, 210 nM; at Akt3, 8 nM; at p-Akt1 in LNCaP cells, 4000 nM; at p-Akt2 in WM115 cells it was 1500 nM; on p-Akt3 in WM115 cells, 25 nM.

`COCC(=O)N(C)[C@H]1CC[C@H](CC(=O)Nc2cc(-c3ccccc3)c(-c3ccc([C@]4(N)C[C@](C)(O)C4)cc3)cn2)CC1` [Example 107, N-(trans-4-(2-((5-(4-(trans-1-amino-3-hydroxy-3-methylcyclobutyl)phenyl)-4-phenylpyridin-2-yl)amino)-2-oxoethyl)cyclohexyl)-2-methoxy-N-methylacetamide]: the IC50 on Akt1 is more than 30000 nM; at Akt2, 94 nM; at Akt3, 9 nM; on p-Akt1 in LNCaP cells, 7300 nM; on p-Akt2 in WM115 cells it was 390 nM; on p-Akt3 in WM115 cells, 9 nM.

With `CCC(=O)N(CC)[C@H]1CC[C@H](CC(=O)Nc2cc(-c3ccccc3)c(-c3ccc([C@]4(N)C[C@](C)(O)C4)cc3)nn2)CC1` [Example 113, N-(trans-4-(2-((6-(4-(trans-1-amino-3-hydroxy-3-methylcyclobutyl)phen)-5-phenylpyridazin-3-yl)amino)-2-oxoethyl)cyclohexyl)-N-ethylpropionamide], the half-maximal inhibitory concentration (IC50) at Akt1 was more than 14000 nM; on Akt2, 130 nM; on Akt3 it was 8 nM; on p-Akt1 in LNCaP cells it was 4100 nM; on p-Akt2 in WM115 cells, 510 nM; on p-Akt3 in WM115 cells it was 7 nM.

The record behind these values is patent publication US10336702B2, “Pharmaceutically active compounds” (BERGENBIO ASA, priority 2015, dated 2019).
